{
  "source": "PubChem BioAssay AID1996",
  "data": [
    {"conditions": "buffer; pH 7.4; 200.0 µM", "units": {"solubility kinetic": "µg/mL"}, "values": [
      {"smiles": "S=C(NCc1ccc(Cl)c(Cl)c1)NCc1ccco1", "solubility kinetic": 23.1},
      {"smiles": "O=C1SCCC1NS(=O)(=O)c1ccc([N+](=O)[O-])cc1", "note": "(centres undefined)", "solubility kinetic": 38.3},
      {"smiles": "CCOC(=O)C1CCCN(C(=O)CSc2nnc3nc(C)cc(C)n23)C1", "note": "(centres undefined)", "solubility kinetic": "> 56.6"},
      {"smiles": "O=C(CN1CCCCCC1)Nc1cc(C(F)(F)F)ccc1Cl", "solubility kinetic": "< 0.4"},
      {"smiles": "O=C(O)CC1(CC(=O)Nc2ccc3c(c2)C(=O)OC3)CCCCC1", "solubility kinetic": "> 49.7"},
      {"smiles": "CCOc1ccc(/C=C/C(=O)NC2CCCCC2)cc1", "solubility kinetic": "< 0.6"},
      {"smiles": "COCC(C)NC(=O)c1cc2c(ccc3ccccc32)oc1=O", "note": "(centres undefined)", "solubility kinetic": 18.1},
      {"smiles": "NC(=O)CSc1nc(C2CC2)nc2sc3c(c12)CCCC3", "solubility kinetic": "< 0.2"},
      {"smiles": "COC(=O)c1cc(C(=O)NCC2CCCCC2)cc([N+](=O)[O-])c1", "solubility kinetic": 33.3},
      {"smiles": "CC(C)N1CCN(c2ccc(S(=O)(=O)N3CCOCC3)cn2)CC1", "solubility kinetic": "> 53.2"},
      {"smiles": "COc1ccc(C(=O)CCC(=O)Nc2cccnc2)c(OC)c1", "solubility kinetic": "> 47.2"},
      {"smiles": "O=C(NN=Cc1cc(Br)c(O)c(Br)c1)c1ccccc1NS(=O)(=O)c1cccs1", "solubility kinetic": "> 83.9"},
      {"smiles": "O=C(NCC(=O)N1CCOCC1)c1ccc(Cl)c(Cl)c1", "solubility kinetic": "> 47.6"},
      {"smiles": "C/C(=C\\c1ccccc1)C(=O)N1CCN(Cc2ccc3c(c2)OCO3)CC1", "solubility kinetic": 51.8},
      {"smiles": "CN(Cc1ccccc1)C(=O)CC(=O)N(C)Cc1ccccc1", "solubility kinetic": "> 46.6"},
      {"smiles": "O=C(CSC(=S)N1CCCC1)c1ccccc1", "solubility kinetic": "< 0.6"},
      {"smiles": "CC(=O)c1ccc(S(=O)(=O)Nc2ccc(S(=O)(=O)N3CCCCC3)cc2)cc1", "solubility kinetic": "> 63.4"},
      {"smiles": "CCc1cccc(C)c1N=Cc1c(O)c2ccccc2oc1=O", "solubility kinetic": 0.9},
      {"smiles": "CN1CCC(N(C)C(=O)c2ccccc2F)CC1.Cl", "solubility kinetic": 42.9},
      {"smiles": "CC(=O)C1=C(C)NC(=O)CC1c1ccc(F)cc1", "note": "(centres undefined)", "solubility kinetic": "> 37.1"},
      {"smiles": "COc1ccccc1OC(C)C(=O)Nc1ccc2c(c1)OCCO2", "note": "(centres undefined)", "solubility kinetic": "> 49.4"},
      {"smiles": "Cc1cccc(-c2nc(C#N)c(N3CCCCC3)o2)c1", "solubility kinetic": 0.4},
      {"smiles": "O=C(Cc1cccs1)NCc1ccccc1Br", "solubility kinetic": 24.8},
      {"smiles": "CC(C)(C)c1csc(NC(=O)c2cccnc2Cl)n1", "solubility kinetic": 40.4},
      {"smiles": "Cn1c(O)c(C=NCCN2CCOCC2)c(=O)n(C)c1=S", "solubility kinetic": "> 46.9"},
      {"smiles": "CC(=O)c1sc(NC(=O)c2cccc(C)c2)nc1C", "solubility kinetic": 16.8},
      {"smiles": "Cn1cnc(S(=O)(=O)N2CCN(c3ccc(F)cc3)CC2)c1", "solubility kinetic": "> 48.7"},
      {"smiles": "O=C(C[n+]1ccc(C(=O)c2ccccc2)cc1)Nc1ccccc1OC(F)F.[Cl-]", "solubility kinetic": 59.4},
      {"smiles": "CC1CCN(CC(=O)NC2CCCCC2)CC1.Cl", "solubility kinetic": 37.4},
      {"smiles": "CC(C1CC1)N(C(=O)c1ccccc1[N+](=O)[O-])c1ccccc1", "note": "(centres undefined)", "solubility kinetic": 13},
      {"smiles": "O=C(NCCc1ccccc1F)C1CC(=O)N(c2ccccc2)C1", "note": "(centres undefined)", "solubility kinetic": 47.8},
      {"smiles": "O=C(CN1CCN(c2ccccc2F)CC1)NC(=O)NC1CCCCC1", "solubility kinetic": "> 54.4"},
      {"smiles": "CCOc1ccc2[nH]c3c(NCCOC)ncnc3c2c1", "solubility kinetic": "> 42.9"},
      {"smiles": "Cc1cnc(C(=O)OCC(=O)N(Cc2ccccc2)C(C)(C)C)cn1", "solubility kinetic": "> 51.2"},
      {"smiles": "CCOC(=O)N1CCN(CCC(=O)c2ccc(Cl)cc2)CC1.Cl", "solubility kinetic": "> 48.7"},
      {"smiles": "Br.CCn1c2c(c(=N)c3ccccc31)CCC2", "solubility kinetic": "> 44"},
      {"smiles": "C=CCn1c(O)c(C=Nc2c(C)n(C)n(-c3ccccc3)c2=O)c(=O)[nH]c1=O", "solubility kinetic": "> 57.2"},
      {"smiles": "O=Cc1cn(CC(=O)Nc2ccc3c(c2)OCO3)c2ccccc12", "solubility kinetic": 0.4},
      {"smiles": "O=C(O)CC(NC(=O)C1CCCCC1)c1ccc(OC2CCCC2)cc1", "note": "(centres undefined)", "solubility kinetic": 53.4},
      {"smiles": "COC(=O)c1ccccc1-n1c(C)nc(=O)c(-c2ccccc2)c1C", "solubility kinetic": "> 50.2"},
      {"smiles": "COc1cccc(OC)c1C(=O)Nc1ccc2nc(C)c(C)nc2c1", "solubility kinetic": 4.5},
      {"smiles": "Cc1ccc(C(=O)NCC(=O)N2CCCCCCC2)cc1", "solubility kinetic": 42.3},
      {"smiles": "COc1ccc2c(C(=O)CCl)c[nH]c2c1", "solubility kinetic": 5.3},
      {"smiles": "CCC(C)[C@H](NC(=O)NCc1ccc(OC)c(OC)c1)C(=O)O", "note": "(some centres undefined)", "solubility kinetic": 39.9},
      {"smiles": "Cc1c(C(=O)OCC(=O)N2C(C)CCCC2C)oc2ccccc12", "note": "(centres undefined)", "solubility kinetic": 44.1},
      {"smiles": "Cc1cc(C(=O)N2CCC3(CC2)OCCO3)no1", "solubility kinetic": "> 37.8"},
      {"smiles": "O=C(c1ccc2c(c1)OCO2)C1CCCN(Cc2ccccn2)C1", "note": "(centres undefined)", "solubility kinetic": 32.8},
      {"smiles": "Cc1cccc(OC(C)C(=O)OCC(=O)N2CCN(c3ccccc3)CC2)c1", "note": "(centres undefined)", "solubility kinetic": 43.4},
      {"smiles": "Cc1nc(SCc2c(Cl)cccc2Cl)nc(OC(=O)N(C)C)c1C", "solubility kinetic": 2.2},
      {"smiles": "Cn1c(=O)c2sccc2n(Cc2cccc(Br)c2)c1=O", "solubility kinetic": 1.4},
      {"smiles": "CCCCc1nnc(NC(=O)C2=COCCO2)s1", "solubility kinetic": "> 40.4"},
      {"smiles": "Cc1ccc(C)c(C(=O)CN2C(=O)NC3(CCCCCCC3)C2=O)c1", "solubility kinetic": 2.6},
      {"smiles": "C=CCn1c(SCC(=O)N(C)CC(=O)Nc2ccc(C)cc2)nnc1-c1ccncc1", "solubility kinetic": "> 65.5"},
      {"smiles": "O=S(=O)(NCCC1CC1(Cl)Cl)c1ccccc1", "note": "(centres undefined)", "solubility kinetic": 39.8},
      {"smiles": "CCOC(=O)C1CCN(Cc2ccc(Cl)nc2)CC1", "solubility kinetic": "> 42.4"},
      {"smiles": "O=C(CCc1ccccc1)NCc1ccncc1", "solubility kinetic": "> 36"},
      {"smiles": "COCCOC(=O)C(CC(=O)O)NCc1ccco1", "note": "(centres undefined)", "solubility kinetic": "> 40.7"},
      {"smiles": "Cc1nn(CCCC(=O)O)c(C)c1[N+](=O)[O-]", "solubility kinetic": "> 34.1"},
      {"smiles": "O=C([O-])c1ncc(Cl)c(Cl)c1Cl.[NH4+]", "solubility kinetic": "> 36.5"},
      {"smiles": "O=C(O)CNC(=S)N(Cc1ccccc1Cl)C1CCCC1", "solubility kinetic": "> 49"},
      {"smiles": "O=C(Cc1ccccc1)c1c[nH]c(C(=O)NCCCn2ccnc2)c1", "solubility kinetic": "> 50.5"},
      {"smiles": "COc1ccc(CCC(=O)OCC(=O)NC(=O)c2ccc(Cl)cc2)cc1", "solubility kinetic": 7.2},
      {"smiles": "O=C(Nc1ccccc1)c1ccccc1NC(=O)c1ccccc1[N+](=O)[O-]", "solubility kinetic": 7.5},
      {"smiles": "CCOC(=O)c1cnc2c(ccc3ccccc32)c1N", "solubility kinetic": "< 0.3"},
      {"smiles": "O=C1CSC(=Nc2cccc(Cl)c2Cl)N1", "solubility kinetic": 37.4},
      {"smiles": "C/C(=C\\C(=O)c1cccnc1)Nc1ccc(C(=O)O)cc1", "solubility kinetic": 31.3},
      {"smiles": "Cc1ccc2cc3c(nc2c1)N(c1ccccc1)CC3", "solubility kinetic": "< 0.3"},
      {"smiles": "CCc1cc2c(SCc3ccc(C(=O)OC)o3)ncnc2s1", "solubility kinetic": 1.8},
      {"smiles": "Cc1ccc(S(=O)(=O)Nc2ccc(F)cc2)cc1C(=O)N1CCOCC1", "solubility kinetic": "> 56.8"},
      {"smiles": "COC(=O)COc1ccc(S(=O)(=O)N2CCCCCC2)cc1C", "solubility kinetic": 39.3},
      {"smiles": "CN1CCN(CCCNC(=O)Nc2ccc([N+](=O)[O-])cc2)CC1", "solubility kinetic": 44.8},
      {"smiles": "N#CCCN(C(=O)CN1CCN(S(=O)(=O)c2ccc(Cl)s2)CC1)c1ccc(F)cc1", "solubility kinetic": "> 70.6"},
      {"smiles": "O=C1c2ccccc2C(=O)N1C(CO)C(O)c1ccc([N+](=O)[O-])cc1", "note": "(centres undefined)", "solubility kinetic": "> 51.3"},
      {"smiles": "CC1CCCCC12NC(=O)N(CC(=O)N1CCc3ccccc31)C2=O", "note": "(centres undefined)", "solubility kinetic": 3.7},
      {"smiles": "CCc1ccc2[nH]c(C(=O)N(C)c3ccc(F)cc3F)cc2c1", "solubility kinetic": 1.7},
      {"smiles": "Cc1ccc(C(=O)NCCN2CCOCC2)cc1C", "solubility kinetic": 38.1},
      {"smiles": "CS(=O)(=O)N1CCC(C(=O)Nc2ccc(C(N)=O)cc2)CC1", "solubility kinetic": 34.7},
      {"smiles": "O=C1C2C3CCC(CC3)C2C(=O)N1c1ccccc1", "note": "(centres undefined)", "solubility kinetic": 11.6},
      {"smiles": "Cl.O=C(NCCCn1ccnc1)c1ccc(F)cc1", "solubility kinetic": "> 42.6"},
      {"smiles": "CC(Cc1ccccc1)C(=O)Nc1ccc(Br)cc1", "note": "(centres undefined)", "solubility kinetic": 3.2},
      {"smiles": "Cc1ccc(CC(=O)Nc2nccs2)cc1C", "solubility kinetic": 3.3},
      {"smiles": "[O-]/[N+](=C\\c1ccco1)c1ccc(Cl)cc1", "solubility kinetic": 32.5},
      {"smiles": "Cc1ccc(C(=O)NCCCNc2ccccc2[N+](=O)[O-])cc1", "solubility kinetic": 3.4},
      {"smiles": "CN(Cc1ccccc1)C(=O)COC(=O)COc1ccc(C#N)cc1", "solubility kinetic": "> 50.8"}
    ]}
  ]
}
